Measured values as given in patent US20250059220A1, “SUBSTITUTED BENZOTHIOPHENE DERIVATIVES AND METHODS OF USE THEREOF” (Merck Sharp & Dohme LLC, priority 2021, published 2025).

What was measured:
human PTPN1 (1-435) = human PTPN1 (1-435) (Homo sapiens (Human), UniProt P18031); assay: Human PTPN1 Biochemical Assay; settings: DiFMUP substrate, read-out: PTP1B IC50
Experimental: Human PTPN1 Biochemical Assay
Test compounds were dissolved in DMSO, and 10-point serial 3-fold dilution series in DMSO were prepared in Echo Qualified 384-well Polypropylene Microplates (Labcyte, San Jose, CA) (top concentration 50 µM). […] 5 μl of assay buffer was added into the low control. The plate was incubated for 30 minutes at room temperature. Subsequently, 5 μl of 100 µM DiFMUP (6,8-difluoro-4-methylumbelliferyl phosphate) solution (prepared in assay buffer from 10 mM stock in DMSO) was added to the assay plate and incubated for 1 hour at room temperature. For detection, assay plates were read on SpectraMax Microplate Reader (Molecular Devices), with Excitation wavelength=360 nm and Emission wavelength=460 nm. […] Calculated % effects were fit using a 4-parameter algorithm, and EC50 was reported.

human PTPN2 (1-387) = human PTPN2 (1-387) (Homo sapiens (Human), UniProt P17706); assay: Human PTPN2 Biochemical Assay; settings: DiFMUP substrate
Experimental: Human PTPN2 Biochemical Assay
Test compounds were dissolved in DMSO, and 10-point serial 3-fold dilution series in DMSO were prepared in Echo Qualified 384-well Polypropylene Microplates (Labcyte, San Jose, CA) (top concentration 50 µM). Assay plates (384-well low volume black plates; Corning #3820, Corning, NY) were prepared by dispensing 50 nL of test compound, and DMSO (for high and low controls) by ECHO acoustic dispenser (Labcyte, San Jose CA). This was followed by addition of 5 μL of 0.2 nM human PTPN2 (1-387) solution (prepared in the assay buffer, 50 mM Tris pH 7.4, 150 mM NaCl, 0.01% Tween20, 0.5 mM dithiothreitol) to all wells except the low control. 5 μl of assay buffer was added into the low control, then the plate was incubated for 30 minutes at room temperature. Subsequently, 5 μl of 100 µM DiFMUP (6,8-difluoro-4-methylumbelliferyl phosphate) solution (prepared in assay buffer from 10 mM stock in DMSO) was added to the assay plate and incubated for 1 hour at room temperature. For detection, assay plates were read on SpectraMax Microplate Reader (Molecular Devices), with Excitation wavelength=360 nm and Emission wavelength=460 nm. Test compound effects were normalized to the window defined by the controls, DMSO/buffer, and DMSO/50 pM human PTPN2. Calculated % effects were fit using a 4-parameter algorithm, and EC50 was reported.

human PTPN1 (1-435), sequence (P18031 whole entry): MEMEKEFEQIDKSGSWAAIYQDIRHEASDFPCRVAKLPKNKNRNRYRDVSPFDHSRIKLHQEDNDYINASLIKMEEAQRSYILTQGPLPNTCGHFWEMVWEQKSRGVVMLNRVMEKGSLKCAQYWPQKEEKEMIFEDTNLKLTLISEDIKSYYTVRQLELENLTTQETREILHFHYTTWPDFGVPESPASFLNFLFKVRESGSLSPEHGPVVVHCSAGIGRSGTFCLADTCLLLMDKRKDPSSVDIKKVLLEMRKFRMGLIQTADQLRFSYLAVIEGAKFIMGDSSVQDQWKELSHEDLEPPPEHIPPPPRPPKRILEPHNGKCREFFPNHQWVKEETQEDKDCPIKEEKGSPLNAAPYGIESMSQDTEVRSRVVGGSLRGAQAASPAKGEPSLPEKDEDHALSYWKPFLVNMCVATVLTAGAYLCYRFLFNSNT
human PTPN2 (1-387), sequence (P17706 other isoform, or with tags, fused parts or gaps): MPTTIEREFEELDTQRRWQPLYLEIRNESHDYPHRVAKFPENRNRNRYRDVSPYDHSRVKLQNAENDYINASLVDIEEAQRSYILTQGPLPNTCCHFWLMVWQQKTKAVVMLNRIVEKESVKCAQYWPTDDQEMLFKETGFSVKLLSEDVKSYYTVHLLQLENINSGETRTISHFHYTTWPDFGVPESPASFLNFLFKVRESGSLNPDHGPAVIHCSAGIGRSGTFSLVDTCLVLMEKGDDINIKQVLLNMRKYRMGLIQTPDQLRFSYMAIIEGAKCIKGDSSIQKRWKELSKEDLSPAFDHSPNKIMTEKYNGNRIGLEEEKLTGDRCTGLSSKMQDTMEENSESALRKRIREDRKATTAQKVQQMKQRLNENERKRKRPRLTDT

Row | Structure (SMILES) | IC50 (human PTPN1 (1-435)) [nM] | IC50 (human PTPN2 (1-387)) [nM]
1 | O=C(Nc1ccc2sc(C(F)(F)P(=O)(O)O)c(Br)c2c1)C(F)(F)F [Compound 213] | 5290 | 6360
2 | Cc1c(C(F)(F)P(=O)(O)O)sc2c(OCC3CC3(F)F)cc(C(N)=O)cc12 (stereo not drawn) [Compound 434] | 482 | 438
3 | NC(=O)c1cc(OCc2ccc(-n3cncn3)cc2)c2sc(C(F)(F)P(=O)(O)O)c(Br)c2c1 [Compound 353] | 140 | 38.5
4 | CS(=O)(=O)CCCOc1cc(C(=O)NCCC#N)cc2c(Br)c(C(F)(F)P(=O)(O)O)sc12 [Compound 330] | 9.2 | 10.4
5 | CC(NC(=O)c1ccc2sc(C(F)(F)P(=O)(O)O)c(Br)c2c1)c1ccccc1-n1cccn1 (stereo not drawn) [Compound 113] | 4080 | 4170
6 | NC(=O)c1cc(OCCC23CC(C2)C3)c2sc(C(F)(F)P(=O)(O)O)c(Br)c2c1 [Compound 293] | 246 | 619
7 | NC(=O)c1cc(OCCC(F)(F)F)c2sc(C(F)(F)P(=O)(O)O)c(Br)c2c1 [Compound 271] | 400 | 338
8 | CCC(NC(=O)c1ccc2sc(C(F)(F)P(=O)(O)O)c(Br)c2c1)c1ccccn1 (stereo not drawn) [Compound 197] | 7210 | 9460
9 | N#CCCNC(=O)c1cc(OCCCS(N)(=O)=O)c2sc(C(F)(F)P(=O)(O)O)c(Br)c2c1 [Compound 328] | 7.9 | 7.83
10 | O=P(O)(O)C(F)(F)c1sc2c(OCCCC(F)(F)F)c(F)ccc2c1Br [Compound 231, ((3-bromo-6-fluoro-7-(4,4,4-trifluorobutoxy)benzo[b]thiophen-2-yl)difluoromethyl)phosphonic acid] | 879 | 989
11 | CS(=O)(=O)c1ccc(COc2cc(-c3cnn[nH]3)cc3c(Br)c(C(F)(F)P(=O)(O)O)sc23)cc1 [Compound 369] | < 2.5 | < 2.5
12 | CS(=O)(=O)c1ccc(COc2cc(C(N)=O)cc3c(Br)c(C(F)(F)P(=O)(O)O)sc23)cc1 [Compound 377] | 5.8 | 4.52
13 | O=P(O)(O)C(F)(F)c1sc2c(OCCCC(F)(F)F)cc(-c3ccn[nH]3)cc2c1Br [Compound 260, ((3-bromo-5-(1H-pyrazol-5-yl)-7-(4,4,4-trifluorobutoxy)benzo[b]thiophen-2-yl)difluoromethyl)phosphonic acid] | 11.4 | 15.7
14 | O=C1CCC(CNC(=O)c2ccc3sc(C(F)(F)P(=O)(O)O)c(Br)c3c2)N1 (stereo not drawn) [Compound 136] | 3760 | 4250
15 | COc1ccc(COc2cc(C(N)=O)cc3c(Br)c(C(F)(F)P(=O)(O)O)sc23)c(C(F)(F)F)c1 [Compound 348] | 177 | 75.7
16 | NC(=O)c1ccc2sc(C(F)(F)P(=O)(O)O)c(Br)c2c1 [Compound 2] | 3230 | 5320

Row | Structure (SMILES) | IC50 (human PTPN1 (1-435)) [nM] | IC50 (human PTPN2 (1-387)) [nM]
17 | NC(=O)c1cc(OCc2ccc([C@H]3CC[C@H](C(F)(F)F)CC3)cc2)c2sc(C(F)(F)P(=O)(O)O)c(Br)c2c1 [Compound 400] | 736 | 214
18 | COc1cc(Cl)ccc1COc1cc(C(N)=O)cc2c(Br)c(C(F)(F)P(=O)(O)O)sc12 [Compound 362] | 76.7 | 42.8
19 | NC(=O)c1cc(OCc2ccc(F)c(F)c2)c2sc(C(F)(F)P(=O)(O)O)c(Br)c2c1 [Compound 356] | 20.5 | 15.9
20 | COc1ccc(NC(=O)c2ccc3sc(C(F)(F)P(=O)(O)O)c(Br)c3c2)cc1 [Compound 29] | 2490 | 3340
21 | CNS(=O)(=O)CCCOc1cc(C(N)=O)cc2c(Br)c(C(F)(F)P(=O)(O)O)sc12 [Compound 373] | 8.6 | 12
22 | CC(C)(C#N)CCCOc1cc(C(N)=O)cc2c(Br)c(C(F)(F)P(=O)(O)O)sc12 [Compound 278] | 16 | 17.4
23 | Cc1nn(C)cc1CNC(=O)c1ccc2sc(C(F)(F)P(=O)(O)O)c(Br)c2c1 [Compound 50] | 6390 | 7490
24 | CC(=O)N1CCc2ccc(NC(=O)c3ccc4sc(C(F)(F)P(=O)(O)O)c(Br)c4c3)cc21 [Compound 77] | 730 | 1110
25 | Cc1c[nH]c(CNC(=O)c2ccc3sc(C(F)(F)P(=O)(O)O)c(Br)c3c2)c(C)c1=O [Compound 129] | 2230 | 2640
26 | O=C(NC(c1ccccc1)c1cccnc1)c1ccc2sc(C(F)(F)P(=O)(O)O)c(Br)c2c1 (stereo not drawn) [Compound 65] | 4300 | 4850
27 | NC(=O)c1cc(OCc2ccc(F)cc2OC(F)F)c2sc(C(F)(F)P(=O)(O)O)c(Br)c2c1 [Compound 342] | 131 | 75.1
28 | CCCCSc1cc(C(N)=O)cc2c(Br)c(C(F)(F)P(=O)(O)O)sc12 [Compound 309] |  | 335
29 | CNC(=O)COc1cc(C(N)=O)cc2c(Br)c(C(F)(F)P(=O)(O)O)sc12 [Compound 246] |  | 1170
30 | NC(=O)c1cc(CCCCC(F)(F)F)c2sc(C(F)(F)P(=O)(O)O)c(Br)c2c1 [Compound 296, ((3-bromo-5-carbamoyl-7-(5,5,5-trifluoropentyl)benzo[b]thiophen-2-yl)difluoromethyl)phosphonic acid] |  | 241
31 | Cc1nnc(-c2cc(OCCCC(F)(F)F)c3sc(C(F)(F)P(=O)(O)O)c(Br)c3c2)[nH]1 [Compound 417, ((3-bromo-5-(5-methyl-4H-1,2,4-triazol-3-yl)-7-(4,4,4-trifluorobutoxy)benzo[b]thiophen-2-yl)difluoromethyl)phosphonic acid] |  | 9.08
32 | O=P(O)(O)C(F)(F)c1sc2c(OCCCC(F)(F)F)cc(O)cc2c1Br [Compound 419, ((3-bromo-5-hydroxy-7-(4,4,4-trifluorobutoxy)benzo[b]thiophen-2-yl)difluoromethyl)phosphonic acid] |  | 345

Now from value to molecule:

Row | IC50 (human PTPN1 (1-435)) [nM] | IC50 (human PTPN2 (1-387)) [nM] | Structure (SMILES)
33 | 7430 | 3470 | CCC(COCc1ccccc1)NC(=O)c1ccc2sc(C(F)(F)P(=O)(O)O)c(Br)c2c1 (stereo not drawn) [Compound 84]
34 | 738 | 578 | N#Cc1c(C(F)(F)P(=O)(O)O)sc2ccc(C(=O)NCc3c[nH]nn3)cc12 [Compound 173]
35 | 6250 | 4160 | C[C@@H](Cc1cccc(C(F)(F)F)c1)NC(=O)c1ccc2sc(C(F)(F)P(=O)(O)O)c(Br)c2c1 [Compound 69]
36 | 2390 | 1610 | CC(C)(O)CCCNc1cccc2c(Br)c(C(F)(F)P(=O)(O)O)sc12 [Compound 224]
37 | 69 | 108 | C[C@@H]1C[C@@]1(F)COc1cc(C(N)=O)cc2c(Br)c(C(F)(F)P(=O)(O)O)sc12 [Compound 277]
38 | 77.7 | 68.5 | NC(=O)c1cc(C#CCCS(N)(=O)=O)c2sc(C(F)(F)P(=O)(O)O)c(Br)c2c1 [Compound 310]
39 | 1330 | 2170 | O=C(Nc1cccc(OC(F)(F)F)c1)c1ccc2sc(C(F)(F)P(=O)(O)O)c(Br)c2c1 [Compound 18]
40 | 61.8 | 50.5 | N#CCCCCOc1cc(C(N)=O)cc2c(Br)c(C(F)(F)P(=O)(O)O)sc12 [Compound 241]
41 | 1310 | 1880 | O=C(Nc1ccccc1F)c1ccc2sc(C(F)(F)P(=O)(O)O)c(Br)c2c1 [Compound 32]
42 | 3560 | 3070 | O=C(NCc1c[nH]nn1)c1cc(O)c2sc(C(F)(F)P(=O)(O)O)c(Br)c2c1 [Compound 167]
43 | 11.5 | 9.7 | N#Cc1c(C(F)(F)P(=O)(O)O)sc2c(OCCCS(N)(=O)=O)cc(C(N)=O)cc12 [Compound 423]
44 | 4080 | 4900 | O=C(NC1CCS(=O)(=O)CC1)c1ccc2sc(C(F)(F)P(=O)(O)O)c(Br)c2c1 [Compound 128]
45 | 25.1 | 24.1 | CNC(=O)c1cc(OCC2CC2(F)F)c2sc(C(F)(F)P(=O)(O)O)c(Br)c2c1 (stereo not drawn) [Compound 321]
46 | 45.3 | 24.4 | NC(=O)c1cc(OCc2ccc(OC(F)(F)F)cc2)c2sc(C(F)(F)P(=O)(O)O)c(Br)c2c1 [Compound 339]
47 | 83 | 176 | NC(=O)c1cc(OCC2CC(F)(F)C2(F)F)c2sc(C(F)(F)P(=O)(O)O)c(Br)c2c1 (stereo not drawn) [Compound 275]
48 | 6.5 | 4.63 | O=C(NCc1c[nH]nn1)c1cc(OCCCC(F)(F)F)c2sc(C(F)(F)P(=O)(O)O)c(Br)c2c1 [Compound 209]
49 |  | 133 | CC(C)(O)CCOc1cc(C(=O)NCc2cccnn2)cc2c(Br)c(C(F)(F)P(=O)(O)O)sc12 [Compound 169]
50 |  | 1460 | O=C(NCc1cccnn1)c1ccc2sc(C(F)(F)P(=O)(O)O)c(Br)c2c1 [Compound 31]
